Measurements from patent US9376425B2, “Heterocyclic compounds as MDM2 inhibitors for the treatment of cancer” (AMGEN INC., priority 2011, dated 2016).
Structures can show the parent of a compound that is named as a salt.

target: T1, human MDM2 (GST-hMDM2 1-188), interaction with biotinylated-p53 (1-83) (Homo sapiens, UniProt Q00987); assay: improved HTRF assay (HTRF2 assay), inhibition of HDM2-p53 interaction; type: binding; details: 0.2 nM GST-hMDM2, 0.5 nM biotinylated-p53, 100 mM KF
T1 construct: Amino acid residues 1-188 of human MDM2 were expressed; made in house; host or cells: Escherichia coli
Method: Residues 1-83 of human p53 were expressed as an amino-terminal AviTag™-TrxA-6xHis fusion protein (biotinylated p53) in E. coli. Each protein was purified from cell paste by affinity chromatography.
Specifically, 10 uL of GST-hMDM2 was incubated with 10 ul of diluted compound (various concentrations, serially diluted) in 10% DMSO for 20 minutes at room temperature. 20 uL of biotinylated-p53 was added to the GST-hMDM2+ compound mixture, and then incubated at room temperature for 60 min. 10 uL of detection buffer consisting of SA-XLent, anti-GST cryptate antibody and KF was added to GST-hMDM2, biotinylated-p53 and compound reaction and left at room temperature to reach equilibrium for >4 hrs. The final concentration of DMSO in the reaction was 2%. Time-resolved fluorescence readings were measured on a microplate multilabel reader. Percentage of inhibition was calculated relative to nutlin-3.

T1 sequence (Q00987 1-188): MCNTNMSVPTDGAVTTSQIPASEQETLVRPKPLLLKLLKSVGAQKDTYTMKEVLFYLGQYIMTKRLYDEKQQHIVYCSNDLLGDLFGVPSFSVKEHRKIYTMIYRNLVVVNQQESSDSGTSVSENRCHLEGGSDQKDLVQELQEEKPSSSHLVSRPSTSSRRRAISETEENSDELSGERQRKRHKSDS

Compound | IC50
2-((2R,5R,6R)-6-(3-Chlorophenyl)-5-(4-chlorophenyl)-4-((3S,5R)-5-hydroxyhexan-3-yl)-3-oxomorpholin-2-yl)acetic acid or 2-((2R,5R,6R)-6-(3-Chlorophenyl)-5-(4-chlorophenyl)-4-((3S,5S)-5-hydroxyhexan-3-yl)-3-oxomorpholin-2-yl)acetic acid [Example 127] | 34 nM
2-((2R,5R,6R)-6-(3-Chlorophenyl)-5-(4-chlorophenyl)-4-((3S,5S)-5-hydroxyhexan-3-yl)-3-oxomorpholin-2-yl)acetic acid or 2-((2R,5R,6R)-6-(3-Chlorophenyl)-5-(4-chlorophenyl)-4-((3S,5R)-5-hydroxyhexan-3-yl)-3-oxomorpholin-2-yl)acetic acid [Example 126] | 61 nM
2-((2R,5R,6R)-6-(3-chlorophenyl)-5-(4-chlorophenyl)-4-((S)-1-(N-(2-cyanophenyl)cyclopropanesulfonamido)butan-2-yl)-3-oxomorpholin-2-yl)acetic acid or 2-((2S,5R,6R)-6-(3-chlorophenyl)-5-(4-chlorophenyl)-4-((S)-1-(N-(2-cyanophenyl)cyclopropanesulfonamido)butan-2-yl)-3-oxomorpholin-2-yl)acetic acid [Example 206] | 145 nM
2-((2R,5R,6R)-6-(3-chlorophenyl)-5-(4-chlorophenyl)-4-((S)-1-(N-(2-cyanophenyl)cyclopropanesulfonamido)butan-2-yl)-3-oxomorpholin-2-yl)acetic acid or 2-((2S,5R,6R)-6-(3-chlorophenyl)-5-(4-chlorophenyl)-4-((S)-1-(N-(2-cyanophenyl)cyclopropanesulfonamido)butan-2-yl)-3-oxomorpholin-2-yl)acetic acid [Example 207] | < 1 nM
2-((2R,5R,6R)-6-(3-chlorophenyl)-5-(4-chlorophenyl)-4-((S)-1-(N-(2-fluorophenyl)cyclopropanesulfonamido)-3-methylbutan-2-yl)-3-oxomorpholin-2-yl)acetic acid or 2-((2S,5R,6R)-6-(3-chlorophenyl)-5-(4-chlorophenyl)-4-((S)-1-(N-(2-fluorophenyl)cyclopropane sulfonamido)-3-methylbutan-2-yl)-3-oxomorpholin-2-yl)acetic acid [Example 196] | 1 nM
CC(C)(C)S(=O)(=O)C[C@H](C1CC1)N1C(=O)[C@@H](CC(=O)O)O[C@H](c2cccc(Cl)c2F)[C@H]1c1ccc(Cl)cc1.CC(C)(C)S(=O)(=O)C[C@H](C1CC1)N1C(=O)[C@H](CC(=O)O)O[C@H](c2cccc(Cl)c2F)[C@H]1c1ccc(Cl)cc1 (mixture of isomers) [Example 326, 2-((2R,5R,6R)-4-((S)-2-(tert-Butylsulfonyl)-1-cyclopropylethyl)-6-(3-chloro-2-fluorophenyl)-5-(4-chlorophenyl)-3-oxomorpholin-2-yl)acetic acid and 2-((2S,5R,6R)-4-((S)-2-(tert-butylsulfonyl)-1-cyclopropylethyl)-6-(3-chloro-2-fluorophenyl)-5-(4-chlorophenyl)-3-oxomorpholin-2-yl)acetic acid] | < 1 nM
CC[C@@H](CS(=O)(=O)C(C)(C)C)N1C(=O)C(CN)O[C@H](c2cccc(Cl)c2)[C@H]1c1ccc(Cl)cc1 (mixture of isomers) [Example 378, (2R,5R,6R)-2-(Aminomethyl)-4-((S)-1-(tert-butylsulfonyl)butan-2-yl)-6-(3-chlorophenyl)-5-(4-chlorophenyl)morpholin-3-one hydrochloride and (2S,5R,6R)-2-(aminomethyl)-4-((S)-1-(tert-butylsulfonyl)butan-2-yl)-6-(3-chlorophenyl)-5-(4-chlorophenyl)morpholin-3-one hydrochloride] | 142 nM
CC[C@@H](CS(=O)(=O)C(C)(C)CC)N1C(=O)[C@@H](CC(=O)O)O[C@H](c2cccc(Cl)c2)[C@H]1c1ccc(Cl)cc1 (single isomer, unassigned) [Example 122, 2-((2R,5R,6R)-6-(3-Chlorophenyl)-5-(4-chlorophenyl)-3-oxo-4-((S)-1-(tert-pentylsulfonyl)butan-2-yl)morpholin-2-yl)acetic acid or 2-((2S,5R,6R)-6-(3-Chlorophenyl)-5-(4-chlorophenyl)-3-oxo-4-((S)-1-(tert-pentylsulfonyl)butan-2-yl)morpholin-2-yl)acetic acid] | < 1 nM
CC[C@@H](CS(=O)(=O)C(C)(C)CC)N1C(=O)[C@H](CC(=O)O)O[C@H](c2cccc(Cl)c2)[C@H]1c1ccc(Cl)cc1 (single isomer, unassigned) [Example 123, 2-((2S,5R,6R)-6-(3-Chlorophenyl)-5-(4-chlorophenyl)-3-oxo-4-((S)-1-(tert-pentylsulfonyl)butan-2-yl)morpholin-2-yl)acetic acid or 2-((2R,5R,6R)-6-(3-Chlorophenyl)-5-(4-chlorophenyl)-3-oxo-4-((S)-1-(tert-pentylsulfonyl)butan-2-yl)morpholin-2-yl)acetic acid] | 1 nM
CC[C@@H](CS(=O)(=O)C(C)C)N1C(=O)[C@@H](CC(=O)O)O[C@H](c2cc(F)cc(Cl)c2)[C@H]1c1ccc(Cl)cc1 (single isomer, unassigned) [Example 124, 2-((2R,5R,6R)-6-(3-Chloro-5-fluorophenyl)-5-(4-chlorophenyl)-4-((S)-1-(isopropylsulfonyl)butan-2-yl)-3-oxomorpholin-2-yl)acetic acid or 2-((2S,5R,6R)-6-(3-Chloro-5-fluorophenyl)-5-(4-chlorophenyl)-4-((S)-1-(isopropylsulfonyl)butan-2-yl)-3-oxomorpholin-2-yl)acetic acid] | 2 nM
CC[C@@H](CS(=O)(=O)C(C)C)N1C(=O)[C@H](CC(=O)O)O[C@H](c2cc(F)cc(Cl)c2)[C@H]1c1ccc(Cl)cc1 (single isomer, unassigned) [Example 125, 2-((2S,5R,6R)-6-(3-Chloro-5-fluorophenyl)-5-(4-chlorophenyl)-4-((S)-1-(isopropylsulfonyl)butan-2-yl)-3-oxomorpholin-2-yl)acetic acid or 2-((2R,5R,6R)-6-(3-Chloro-5-fluorophenyl)-5-(4-chlorophenyl)-4-((S)-1-(isopropylsulfonyl)butan-2-yl)-3-oxomorpholin-2-yl)acetic acid] | 11 nM
CC[C@@H](CS(=O)(=O)c1ccccc1Cl)N1C(=O)[C@@H](CC(=O)O)O[C@H](c2cccc(Cl)c2)[C@H]1c1ccc(Cl)cc1 (single isomer, unassigned) [Example 137, 2-((2R,5R,6R)-6-(3-chlorophenyl)-5-(4-chlorophenyl)-4-((S)-1-((2-chlorophenyl)sulfonyl)butan-2-O-3-oxomorpholin-2-yl)acetic acid or 2-((2S,5R,6R)-6-(3-chlorophenyl)-5-(4-chlorophenyl)-4-((S)-1-((2-chlorophenyl)sulfonyl)butan-2-yl)-3-oxomorpholin-2-yl)acetic acid] | 5 nM
CC[C@@H](CS(=O)(=O)c1ccccc1Cl)N1C(=O)[C@@H](CC(=O)O)O[C@H](c2cccc(Cl)c2)[C@H]1c1ccc(Cl)cc1 (single isomer, unassigned) [Example 138, 2-((2R,5R,6R)-6-(3-chlorophenyl)-5-(4-chlorophenyl)-4-((S)-1-((2-chlorophenyl)sulfonyl)butan-2-yl)-3-oxomorpholin-2-yl)acetic acid or 2-((2S,5R,6R)-6-(3-chlorophenyl)-5-(4-chlorophenyl)-4-((S)-1-((2-chlorophenyl)sulfonyl)butan-2-yl)-3-oxomorpholin-2-yl)acetic acid] | 29 nM
CC[C@@H](CS(=O)(=O)C1CCC1)N1C(=O)[C@@H](CC(=O)O)O[C@H](c2cccc(Cl)c2)[C@H]1c1ccc(Cl)cc1 (single isomer, unassigned) [Example 141, 2-((2R,5R,6R)-6-(3-chlorophenyl)-5-(4-chlorophenyl)-4-((S)-1-(cyclobutylsulfonyl)butan-2-yl)-3-oxomorpholin-2-yl)acetic acid or 2-((2S,5R,6R)-6-(3-chlorophenyl)-5-(4-chlorophenyl)-4-((S)-1-(cyclobutylsulfonyl)butan-2-yl)-3-oxomorpholin-2-yl)acetic acid] | 1 nM
CC[C@@H](CS(=O)(=O)C1CCC1)N1C(=O)[C@@H](CC(=O)O)O[C@H](c2cccc(Cl)c2)[C@H]1c1ccc(Cl)cc1 (single isomer, unassigned) [Example 142, 2-((2R,5R,6R)-6-(3-chlorophenyl)-5-(4-chlorophenyl)-4-((S)-1-(cyclobutylsulfonyl)butan-2-yl)-3-oxomorpholin-2-yl)acetic acid or 2-((2S,5R,6R)-6-(3-chlorophenyl)-5-(4-chlorophenyl)-4-((S)-1-(cyclobutylsulfonyl)butan-2-yl)-3-oxomorpholin-2-yl)acetic acid] | 7 nM
CC[C@@H](CS(=O)(=O)C(C)C)N1C(=O)[C@@H](CC(=O)O)O[C@H](c2cc(Cl)cc(Cl)c2)[C@H]1c1ccc(Cl)cc1 (single isomer, unassigned) [Example 145, 2-((2R,5R,6R)-5-(4-chlorophenyl)-6-(3,5-dichlorophenyl)-4-((S)-1-(isopropylsulfonyl)butan-2-yl)-3-oxomorpholin-2-yl)acetic acid or 2-((2S,5R,6R)-5-(4-chlorophenyl)-6-(3,5-dichlorophenyl)-4-((S)-1-(isopropylsulfonyl)butan-2-yl)-3-oxomorpholin-2-yl)acetic acid] | 8 nM
